Columns and labels:
[1] = system: HeLa cells; type: cell-based, human; settings: FACS
Description: (§1) To evaluate the internalization of FITC-labeled peptides, HeLa cells were seeded onto 12-well plates at a density of 2×10^5 cells per well and incubated for 24 h. FITC-labeled peptides, at various concentrations ranging from […], were then incubated with the cells for 30 min at 37°C. To compare the cellular uptake of peptides, cancer and normal cells were treated with FITC-labeled peptides (each, 10 µM) and incubated for 30 min at 37°C. Following the incubation, cells were washed three times with ice-cold PBS to remove excess extracellular complexes. Next, the cells were treated with trypsin (1 mg/ml) for 10 min to remove any remaining peptides bound to the cell surface. After trypsinization, the cells were collected by centrifugation (1,000×g for 5 min), resuspended with 500 µl ice-cold 2% FBS/PBS containing propidium iodide (PI), and then immediately analyzed (10,000 events/sample) by fluorescence activated cell sorting (FACS).
To understand further the cell-penetrating mechanism of peptides, the effects of temperature and metabolic inhibitors were examined. To elucidate the temperature dependency, HeLa cells were incubated at 4°C for 30 min prior to the addition of the peptides. Next, cells were treated with FITC-labeled peptides (each, 5 µM) at 4°C for 30 min. For the energy-depletion study, HeLa cells were preincubated with sodium azide (NaN3, 10 mM) at 37°C for 1 h and then incubated with FITC-labeled peptides (each, 5 µM) at 37°C for 30 min.
To study the role of endocytosis in peptide uptake, cells were pretreated with several endocytosis inhibitors at 37°C for 1 h: (i) amiloride (5 mM), which is known to block macropinocytosis by inhibiting a sodium channel; (ii) nocodazole (100 ng/ml), which inhibits the clathrin-mediated pathway; and (iii) methyl-ß-cyclodextrin (MßCD, 5 mM), which inhibits lipid raft-mediated processes by depleting cholesterol from the plasma membrane. All inhibitors were purchased from Sigma (St. Louis, MO).
To examine the effects of negatively charged components on the cell surface for peptide internalization, HeLa cells were pretreated with gangliosides (monosialoganglioside GM3 from canine blood), heparin sulfate, or sialic acid (Neu5Ac, all from Sigma) (20 µg/ml) for 30 min. For the inhibition of ganglioside biosynthesis, cells were pretreated with D-threo-1-phenyl-2-hexadecanoyl amino-3-morpholino-1-propanol (PPMP, 5 µM) for 48 h.
(§2) For all of these experimental conditions, flow cytometry analyses were performed with live cells using a Becton Dickinson FACSCalibur flow cytometer (BD Biosciences, San Diego, CA). In each case, the fluorescence of 10,000 viable cells was acquired. Viable cells were gated based on a sideward and forward scatter. For data analysis, WinMDI software (Joe Trotter, Scripps Research Institute, La Jolla, CA) was used. The statistical significance was evaluated by Student’s t-test at a 95% confidence interval.
Figure 2 BR2 specifically penetrates cancer cell membranes in a concentration-dependent manner. (A) Analysis of the cell-penetrating efficiency of each peptide in different cell types by flow cytometry. FITC-labeled Tat, BR1 and BR2 peptides (10 µM) were added to different cell types: HeLa, HCT116 and B16/F10 cancer cells and HaCat, BJ and NIH 3T3 normal cells. After 30 min of incubation at 37°C, the FITC-positive cells were counted by flow cytometry. Values represent the percentage of fluorescence-positive cells in the total cell population. (B) Quantitative assessment of cell penetration of each peptide by flow cytometry. HeLa cells were incubated with FITC-labeled peptides at concentrations of 1, 2, 5, or 10 µM for 30 min at 37°C. Afterwards the cells were washed with cold PBS and harvested and cellular fluorescence was analyzed by flow cytometry. […] Prior to analysis, extracellular fluorescence of surface bound peptides was removed by a trypsin treatment (1 mg/ml for 10 min). […]

[2] = system: cancer cell lines (HeLa, HCT116 and B16/F10); assay: In vitro cytotoxicity assay (LDH leakage), cancer cell lines; settings: 100 µM peptide, 24 h, 37°C; 0.2% Triton X-100 = 100%; n = 3
Description: The cytotoxicity of peptides to mammalian cells was investigated by assessing the release of lactate dehydrogenase (LDH) from cancer and normal cells. The amount of LDH released from damaged cells into the supernatant was measured using the Cytotoxicity Detection Kit (Roche Applied Science, Germany) according to the manufacturer’s instructions. In brief, cells were plated onto 96-well microplates (1×10^4 cells per well) in complete DMEM supplemented with 10% FBS and incubated overnight at 37°C to allow for attachment and spreading of cells. After 24 h of incubation, cells were treated with various concentrations of peptides (0–100 µM) and incubated for another 24 h at 37°C. The extracellular medium from each well was transferred to a new microplate and incubated for 10 min with 100 µl/well reaction mixture, followed by a stop solution. Absorbance was measured at 490 nm by using an ELISA plate reader. LDH release from cells lysed with 0.2% Triton X-100 in PBS was defined as 100% leakage and LDH release from untreated cells as 0% leakage.
(B,C) In vitro cytotoxicity of peptides. (B) Membrane disturbance was measured by lactate dehydrogenase (LDH) leakage from the indicated cell lines 24 h after peptide treatment. LDH leakage from cells seeded in a 96-well plate at 10,000 cells/well was measured after exposure to 1, 2, 5, 10, 20, 50 or 100 µM peptides for 24 h. […]

[3] = system: cancer cells (HeLa, HCT116 and B16/F10); type: cell-based, human, mouse; settings: flow cytometry
Description: as §1
as §2, with “For data analysis, WinMDI software (Joe Trotter, Scripps Research Institute, La Jolla, CA) was used.” left out, “interval. […]” for “interval.”

[4] = system: cancer cells (HeLa, HCT116 and B16/F10); assay: Confocal laser scanning microscopy of FITC-labeled peptide uptake, cancer cells; type: cell-based, human, mouse; settings: FITC-labeled peptide 5 µM, 30 min, 37°C, live unfixed cells
Description: To investigate the cell-penetrating ability and the intracellular distribution of the internalized peptides, live confocal microscopy was performed on three cancer lines (HeLa, HCT116 and B16/F10) and three normal cell lines (HaCat, BJ and NIH 3T3). Briefly, cells (2×10^5) were plated on a glass coverslip placed in a 6-well plate, grown overnight, and then incubated with FITC-labeled peptides (5 µM for each cell line) for 30 min. The cells were then rinsed three times with phosphate buffered saline (PBS, pH 7.4), and mounted on microscope slides with fluorescence mounting solution (Dako Corp, Carpinteria, CA). Colocalization of BR2 with lysosomes was observed by using LysoTracker Red DND-99 (Molecular Probe, Eugene, OR). To avoid the effects of fixation artifacts, involving both methanol and paraformaldehyde, cells were not fixed, [27]. The distribution of FITC-labeled peptides was analyzed using a confocal scanning laser Zeiss LSM 510 microscope (Jena, Germany) equipped with a 40× and 20× objective. Fluorophores were excited with an argon laser (488 nm) for FITC and a HeNe laser (543 nm) for LysoTracker Red.
(B,C) In vitro cytotoxicity of peptides.

## RAGLQFPVGRLLRRLLR [BR2]
[1]; FITC-labeled peptide 5 µM, 30 min at 4°C after preincubation at 4°C
  decrease of cellular uptake at 4°C compared to 37°C: 88.5%
[1]; MßCD 5 mM pretreatment 1 h 37°C, peptide 30 min 37°C, mean of three experiments
  inhibition of penetration by methyl-ß-cyclodextrin (MßCD): 44.6%
[1]; NaN3 10 mM preincubation 1 h 37°C, then FITC-labeled peptide 5 µM 30 min 37°C
  reduction of uptake by ATP depletion (sodium azide): 67.7%
[1]; PPMP 5 µM pretreatment 48 h
  effect of ganglioside synthesis inhibitor PPMP on peptide uptake: significantly reduced
[1]; amiloride 5 mM pretreatment 1 h 37°C, peptide 30 min 37°C, mean of three experiments
  inhibition of cellular uptake by amiloride: 36.5%
[1]; gangliosides (GM3) 20 µg/ml, 30 min
  effect of exogenous gangliosides on peptide penetration: partially inhibited
[1]; heparin 20 µg/ml, 30 min
  effect of exogenous heparin on peptide uptake: almost no effect
[1]; nocodazole 100 ng/ml pretreatment 1 h 37°C, peptide 30 min 37°C
  effect of nocodazole on peptide transduction: negligible effect
[1]; sialic acid (Neu5Ac) 20 µg/ml, 30 min
  effect of exogenous sialic acids on peptide penetration: partially inhibited
[2]
  LDH leakage: 40–60%
[3]
  transduction efficiency into cancer cells versus normal cells: about 4 fold
[4]
  cellular uptake (confocal microscopy): readily internalized

Reference: publication PMC3679022, “A Cancer Specific Cell-Penetrating Peptide, BR2, for the Efficient Delivery of an scFv into Cancer Cells” (PLoS ONE, 2013)
